The values that follow are results of earlier work, collected in PubChem BioAssay AID1259409 (Chemical Carcinogenesis Research Information System (CCRIS), 2018).

In the data set the test system is rodent chemically induced tumor inhibition, incidence and multiplicity. Kind of data set: CCRIS tumor inhibitor studies. The following applies: Dose [Inhibitor]: 0, Route [Inhibitor]: ORAL, Promoter: NONE USED.

For `CC1=C(/C=C/C(C)=C/C=C/C(C)=C/C=C/C=C(C)/C=C/C=C(C)/C=C/C2=C(C)CCCC2(C)C)C(C)(C)CCC1`, the “tumour outcome (control, treated, inhibition, significance)” value runs as follows: (Carcinogen: N-ETHYL-N'-NITRO-N-NITROSOGUANIDINE, 4245-77-6, 0.005% PALM CAROTENE IN DRINKING WATER FOR 16 WK BEGINNING POST CARCINOGEN TREATMENT (STUDY DURATION: 20 WK), Species: MOUSE, Strain/Sex: C57BL/MALE, Target Tissue: Type of Lesion: DUODENUM: TUMOR, Dose [Carcinogen]: 100 MG/L IN DRINKING WATER FOR 4 WK) 18/27 (67%), 8/16 (50%), 25%, not significant; (Carcinogen: N-ETHYL-N'-NITRO-N-NITROSOGUANIDINE, 4245-77-6, 0.05% PALM CAROTENE IN DRINKING WATER FOR 16 WK BEGINNING POST CARCINOGEN TREATMENT (STUDY DURATION: 20 WK), Species: MOUSE, Strain/Sex: C57BL/MALE, Target Tissue: Type of Lesion: DUODENUM: TUMOR, Dose [Carcinogen]: 100 MG/L IN DRINKING WATER FOR 4 WK) 18/27 (67%), 11/28 (39%), 42%, p<0.05; (Carcinogen: N-METHYL-N'-NITRO-N-NITROSOGUANIDINE, 70-25-7, 0.4% IN DIET FOR 2 WK PRIOR TO FIRST CARCINOGEN DOSE FOLLOWED BY 0, 0.2% IN DIET FOR 25 WK (STUDY DURATION: 27 WK), 0.4% IN DIET FOR 2 WK PRIOR TO FIRST CARCINOGEN DOSE FOLLOWED BY 0, 0.2% IN DIET FOR 25 WK (STUDY DURATION: 27 WK), Species: RAT, Strain/Sex: WISTAR/MALE, Target Tissue: Type of Lesion: COLON: ADENOCARCINOMA, Dose [Carcinogen]: 0.15 ML OF A 13.4 MG/ML SOLUTION IN DISTILLED WATER 2/WK FOR 3 WK) 34/36 (94%), 34/35 (97%), -3%, not calculated; (Carcinogen: N-METHYL-N'-NITRO-N-NITROSOGUANIDINE, 70-25-7, 0.4% IN DIET FOR 2 WK PRIOR TO FIRST CARCINOGEN DOSE FOLLOWED BY 0, 0.2% IN DIET FOR 25 WK (STUDY DURATION: 27 WK), 0.4% IN DIET FOR 2 WK PRIOR TO FIRST CARCINOGEN DOSE FOLLOWED BY 0, 0.2% IN DIET FOR 25 WK (STUDY DURATION: 27 WK), Species: RAT, Strain/Sex: WISTAR/MALE, Target Tissue: Type of Lesion: COLON: ADENOMA, Dose [Carcinogen]: 0.15 ML OF A 13.4 MG/ML SOLUTION IN DISTILLED WATER 2/WK FOR 3 WK) 17/36 (47%), 24/35 (69%), -47%, not calculated; (Carcinogen: N-METHYL-N'-NITRO-N-NITROSOGUANIDINE, 70-25-7, 0.4% IN DIET FOR 2 WK PRIOR TO FIRST CARCINOGEN DOSE FOLLOWED BY 0, 0.2% IN DIET FOR 52 WK (STUDY DURATION: 54 WK), 0.4% IN DIET FOR 2 WK PRIOR TO FIRST CARCINOGEN DOSE FOLLOWED BY 0, 0.2% IN DIET FOR 52 WK (STUDY DURATION: 54 WK), Species: RAT, Strain/Sex: WISTAR/MALE, Target Tissue: Type of Lesion: GLANDULAR STOMACH: ADENOCARCINOMA, Dose [Carcinogen]: 80 UG/ML IN DRINKING WATER FOR 52 WK) 7/36 (19%), 4/35 (11%), 42%, not calculated; (Carcinogen: N-METHYL-N'-NITRO-N-NITROSOGUANIDINE, 70-25-7, 0.4% IN DIET FOR 2 WK PRIOR TO FIRST CARCINOGEN DOSE FOLLOWED BY 0, 0.2% IN DIET FOR 52 WK (STUDY DURATION: 54 WK), 0.4% IN DIET FOR 2 WK PRIOR TO FIRST CARCINOGEN DOSE FOLLOWED BY 0, 0.2% IN DIET FOR 52 WK (STUDY DURATION: 54 WK), Species: RAT, Strain/Sex: WISTAR/MALE, Target Tissue: Type of Lesion: SMALL INTESTINE: ADENOCARCINOMA, Dose [Carcinogen]: 80 UG/ML IN DRINKING WATER FOR 52 WK) 10/36 (28%), 17/35 (49%), -75%, p= 0.12. The “tumour outcome (control, treated, inhibition, significance)” value runs as follows: (Carcinogen: N-METHYL-N'-NITRO-N-NITROSOGUANIDINE, 70-25-7, 0.4% IN DIET FOR 2 WK PRIOR TO FIRST CARCINOGEN DOSE FOLLOWED BY 0, 0.2% IN DIET FOR 52 WK (STUDY DURATION: 54 WK), 0.4% IN DIET FOR 2 WK PRIOR TO FIRST CARCINOGEN DOSE FOLLOWED BY 0, 0.2% IN DIET FOR 52 WK (STUDY DURATION: 54 WK), Species: RAT, Strain/Sex: WISTAR/MALE, Target Tissue: Type of Lesion: SMALL INTESTINE: ADENOMA, Dose [Carcinogen]: 80 UG/ML IN DRINKING WATER FOR 52 WK) 1/36 (3%), 0/35 (0%), 100%, not calculated; (Carcinogen: N-METHYL-N'-NITRO-N-NITROSOGUANIDINE, 70-25-7, 0.4% IN DIET FOR 2 WK PRIOR TO FIRST CARCINOGEN DOSE FOLLOWED BY 0, 0.2% IN DIET FOR 52 WK (STUDY DURATION: 54 WK), 0.4% IN DIET FOR 2 WK PRIOR TO FIRST CARCINOGEN DOSE FOLLOWED BY 0, 0.2% IN DIET FOR 52 WK (STUDY DURATION: 54 WK), Species: RAT, Strain/Sex: WISTAR/MALE, Target Tissue: Type of Lesion: SMALL INTESTINE: ANGIOSARCOMA, Dose [Carcinogen]: 80 UG/ML IN DRINKING WATER FOR 52 WK) 3/36 (8%), 6/35 (17%), -113%, not calculated. Under “Carcinogen: N-METHYL-N'-NITRO-N-NITROSOGUANIDINE, 70-25-7, 0.4% IN DIET FOR 2 WK PRIOR TO FIRST CARCINOGEN DOSE FOLLOWED BY 0, 0.2% IN DIET FOR 52 WK (STUDY DURATION: 54 WK), 0.4% IN DIET FOR 2 WK PRIOR TO FIRST CARCINOGEN DOSE FOLLOWED BY 0, 0.2% IN DIET FOR 52 WK (STUDY DURATION: 54 WK), Species: RAT, Strain/Sex: WISTAR/MALE, Target Tissue: Type of Lesion: GLANDULAR STOMACH: LEIOMYOSARCOMA, Dose [Carcinogen]: 80 UG/ML IN DRINKING WATER FOR 52 WK”, the outcome was 0/36 (0%), 2/35 (6%), -600%, not calculated.
